Measurements reported in US8148373B2, “Compounds” (AstraZeneca AB, priority 2008, dated 2012).

How the values were obtained:
[1] = target: T1, human muscarinic acetylcholine M3 receptor (M3-ACh) (Homo sapiens, UniProt P20309); test: Muscarinic 3 Receptor Binding Assay, % inhibition specific binding at 1 μM; details: 1 μM compound, % inhibition specific [3H]-NMS binding
T1 construct: expressed in transfected cells; host or cells: CHO-K1 (Chinese Hamster Ovary) cell membranes
Outline: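 Competition binding of 0.1 nM [3H]NMS to membranes from CHO-K1 cells expressing human M3, SPA format, with compound at 1 μM in 20 mM HEPES pH 7.4, 5 mM MgCl2, 1% DMSO. Incubated 16 h at room temperature; non-specific binding defined by 1 μM atropine; value is % inhibition of specific binding.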

[2] = target: T2, Adrenergic β2 (H292 cells) (Homo sapiens, UniProt P07550); test: Adrenergic β2 Mediated cAMP Production, single concentration 1 μM; format: cell-based; details: percentage of the maximum response generated by 1E-07M formoterol; for activation at 1 µM: NCI-H292, 1 μM compound, read-out: β2 (% effect at 1 μM); for β2 (% effect at 1 μM): 1 μM compound
T2 construct: endogenous in cells; host or cells: H292 cells
T2 sequence (P07550 whole entry): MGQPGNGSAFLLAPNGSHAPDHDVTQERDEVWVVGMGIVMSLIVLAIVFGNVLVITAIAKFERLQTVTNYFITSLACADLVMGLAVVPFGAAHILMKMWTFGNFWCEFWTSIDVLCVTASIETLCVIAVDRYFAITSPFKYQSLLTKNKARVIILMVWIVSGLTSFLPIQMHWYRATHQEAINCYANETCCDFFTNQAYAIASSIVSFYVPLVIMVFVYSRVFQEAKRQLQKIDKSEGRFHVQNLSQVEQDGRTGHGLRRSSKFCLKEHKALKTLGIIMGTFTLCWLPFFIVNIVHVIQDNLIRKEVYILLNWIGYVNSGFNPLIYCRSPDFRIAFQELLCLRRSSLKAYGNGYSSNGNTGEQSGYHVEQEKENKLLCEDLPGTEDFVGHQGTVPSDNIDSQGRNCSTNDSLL
Outline: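 H292 cells were plated overnight, pre-treated with 300 μM rolipram for 10 min, then exposed to compound at 1 μM final (1% DMSO) for 60 min at room temperature. cAMP in the lysates was measured by AlphaScreen against a standard curve and expressed as % of the maximal response to 1E-07M formoterol.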

T1 sequence (P20309 whole entry): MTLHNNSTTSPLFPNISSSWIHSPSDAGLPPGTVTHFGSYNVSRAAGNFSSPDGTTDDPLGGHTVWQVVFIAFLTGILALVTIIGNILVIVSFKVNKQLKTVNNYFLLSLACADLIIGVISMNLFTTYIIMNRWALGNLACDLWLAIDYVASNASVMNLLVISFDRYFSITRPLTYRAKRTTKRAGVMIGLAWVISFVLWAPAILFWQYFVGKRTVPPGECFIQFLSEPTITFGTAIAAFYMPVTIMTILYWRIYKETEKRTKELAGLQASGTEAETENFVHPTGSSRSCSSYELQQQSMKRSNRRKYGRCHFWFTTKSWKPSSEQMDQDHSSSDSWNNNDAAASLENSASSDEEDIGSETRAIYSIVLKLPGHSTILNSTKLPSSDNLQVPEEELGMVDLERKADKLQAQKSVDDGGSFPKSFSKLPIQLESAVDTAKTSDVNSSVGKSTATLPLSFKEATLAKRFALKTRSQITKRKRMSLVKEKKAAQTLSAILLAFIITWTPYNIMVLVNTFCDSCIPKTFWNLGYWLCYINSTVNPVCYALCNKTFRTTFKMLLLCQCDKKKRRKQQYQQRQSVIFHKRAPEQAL

Row | inhibition at 1 µM [1] [%] | activation at 1 µM [2] [%] | M3 (% inhibition at 1 μM) [1] [%] | SMILES | M3 (% inhibition at 1 μM) ([1]; 1 µM) [%] | β2 (% effect at 1 μM) [2] [%]
1 | 93 | 56 | – | CCCc1nc(C(=O)N2CCOC3(CCN(CCOc4ccc(CNC[C@H](O)c5ccc(O)c6[nH]c(=O)sc56)cc4)CC3)C2)cs1 [Example 260, (R)-4-hydroxy-7-(1-hydroxy-2-(4-(2-(4-(2-propylthiazole-4-carbonyl)-1-oxa-4,9-diazaspiro[5.5]undecan-9-yl)ethoxy)benzylamino)ethyl) benzo[d]thiazol-2(3H)-one] | – | –
2 | 8 | 100 | – | Cc1noc(C)c1CC(=O)N1CCOC2(CCN(Cc3cc(F)cc(CCNC[C@H](O)c4ccc(O)c5[nH]c(=O)sc45)c3)CC2)C1 [Example 167, (R)-7-(2-(3-((4-(2-(3,5-dimethylisoxazol-4-yl)acetyl)-1-oxa-4,9-diazaspiro[5.5]undecan-9-yl)methyl)-5-fluorophenethylamino)-1-hydroxyethyl)-4-hydroxybenzo[d]thiazol-2(3H)-one] | – | –
3 | 67 | 83 | – | O=C(CCCc1ccccc1)N1CCOC2(CCN(CCOc3ccc(CNC[C@H](O)c4ccc(O)c5[nH]c(=O)sc45)cc3)CC2)C1 [Example 229, (R)-4-hydroxy-7-(1-hydroxy-2-(4-(2-(4-(4-phenylbutanoyl)-1-oxa-4,9-diazaspiro[5.5]undecan-9-yl)ethoxy)benzylamino)ethyl) benzo[d]thiazol-2(3H)-one] | – | –
4 | 13 | 110 | – | Cc1nc2ccccn2c1C(=O)N1CCOC2(CCN(Cc3cc(F)cc(CCNC[C@H](O)c4ccc(O)c5[nH]c(=O)sc45)c3)CC2)C1 [Example 152, (R)-7-(2-(3-fluoro-5-((4-(2-methylimidazo[1,2-a]pyridine-3-carbonyl)-1-oxa-4,9-diazaspiro[5.5]undecan-9-yl)methyl)phenethylamino)-1-hydroxyethyl)-4-hydroxybenzo[d]thiazol-2(3H)-one] | – | –
5 | 41 | 95 | – | Cc1occc1C(=O)N1CCOC2(CCN(Cc3cc(F)cc(CCNC[C@H](O)c4ccc(O)c5[nH]c(=O)sc45)c3)CC2)C1 [Example 131, (R)-7-(2-(3-fluoro-5-((4-(2-methylfuran-3-carbonyl)-1-oxa-4,9-diazaspiro[5.5]undecan-9-yl)methyl)phenethylamino)-1-hydroxyethyl)-4-hydroxybenzo[d]thiazol-2(3H)-one] | – | –
6 | 78 | 84 | – | Cc1cc(C(=O)N2CCOC3(CCN(CCOc4ccc(CNC[C@H](O)c5ccc(O)c6[nH]c(=O)sc56)cc4)CC3)C2)c(C)s1 [Example 243, (R)-7-(2-(4-(2-(4-(2,5-dimethylthiophene-3-carbonyl)-1-oxa-4,9-diazaspiro[5.5]undecan-9-yl)ethoxy)benzylamino)-1-hydroxyethyl)-4-hydroxy-benzo[d]thiazol-2(3H)-one] | – | –
7 | 29 | 95 | – | O=C(Cn1ccc2cccc(Cl)c21)N1CCOC2(CCN(Cc3cc(F)cc(CCNC[C@H](O)c4ccc(O)c5[nH]c(=O)sc45)c3)CC2)C1 [Example 168, (R)-7-(2-(3-((4-(2-(7-chloro-1H-indol-1-yl)acetyl)-1-oxa-4,9-diazaspiro[5.5]undecan-9-yl)methyl)-5-fluorophenethylamino)-1-hydroxyethyl)-4-hydroxybenzo[d]thiazol-2(3H)-one] | – | –
8 | 56 | 83 | – | Cc1ccsc1C(=O)N1CCOC2(CCN(CCOc3ccc(CNC[C@H](O)c4ccc(O)c5[nH]c(=O)sc45)cc3)CC2)C1 [Example 232, (R)-4-hydroxy-7-(1-hydroxy-2-(4-(2-(4-(3-methylthiophene-2-carbonyl)-1-oxa-4,9-diazaspiro[5.5]undecan-9-yl)ethoxy)benzylamino)ethyl) benzo[d]thiazol-2(3H)-one] | – | –
9 | 68 | 91 | – | Cc1nc(C)c(CC(=O)N2CCOC3(CCN(CCCCCCCCCNC[C@H](O)c4ccc(O)c5[nH]c(=O)sc45)CC3)C2)s1 [Example 211, (R)-7-(2-(9-(4-(2-(2,4-dimethylthiazol-5-yl)acetyl)-1-oxa-4,9-diazaspiro[5.5]undecan-9-yl)nonylamino)-1-hydroxyethyl)-4-hydroxybenzo[d]thiazol-2(3H)-one] | – | –
10 | 90 | 76 | – | Cc1ccc(C(=O)N2CCOC3(CCN(CCOc4ccc(CNC[C@H](O)c5ccc(O)c6[nH]c(=O)sc56)cc4)CC3)C2)o1 [Example 239, (R)-4-hydroxy-7-(1-hydroxy-2-(4-(2-(4-(5-methylfuran-2-carbonyl)-1-oxa-4,9-diazaspiro[5.5]undecan-9-yl)ethoxy)benzylamino)ethyl) benzo[d]thiazol-2(3H)-one] | – | –
11 | 11 | 85 | – | Cc1ccnn1CC(=O)N1CCOC2(CCN(CCOc3ccc(CNC[C@H](O)c4ccc(O)c5[nH]c(=O)sc45)cc3)CC2)C1 [Example 241, (R)-4-hydroxy-7-(1-hydroxy-2-(4-(2-(4-(2-(5-methyl-1H-pyrazol-1-yl)acetyl)-1-oxa-4,9-diazaspiro[5.5]undecan-9-yl)ethoxy)benzylamino)ethyl) benzo[d]thiazol-2(3H)-one] | – | –

Further lines, the molecule ahead of its results:

Row | SMILES | inhibition at 1 µM [1] [%] | activation at 1 µM [2] [%] | M3 (% inhibition at 1 μM) [1] [%] | M3 (% inhibition at 1 μM) ([1]; 1 µM) [%] | β2 (% effect at 1 μM) [2] [%]
12 | Cc1nonc1C(=O)N1CCOC2(CCN(Cc3cc(F)cc(CCNC[C@H](O)c4ccc(O)c5[nH]c(=O)sc45)c3)CC2)C1 [Example 151, (R)-7-(2-(3-fluoro-5-((4-(4-methyl-1,2,5-oxadiazole-3-carbonyl)-1-oxa-4,9-diazaspiro[5.5]undecan-9-yl)methyl)phenethylamino)-1-hydroxyethyl)-4-hydroxybenzo[d]thiazol-2(3H)-one] | 71 | 98 | – | – | –
13 | O=C(CCc1nc2ccccc2[nH]1)N1CCOC2(CCN(Cc3cc(F)cc(CCNC[C@H](O)c4ccc(O)c5[nH]c(=O)sc45)c3)CC2)C1 [Example 116, (R)-7-(2-(3-((4-(3-(1H-benzo[d]imidazol-2-yl)propanoyl)-1-oxa-4,9-diazaspiro[5.5]undecan-9-yl)methyl)-5-fluorophenethylamino)-1-hydroxyethyl)-4-hydroxybenzo[d]thiazol-2(3H)-one] | 3 | 111 | – | – | –
14 | Cc1nc(C(=O)N2CCOC3(CCN(CCOc4ccc(CNC[C@H](O)c5ccc(O)c6[nH]c(=O)sc56)cc4)CC3)C2)c(C)s1 [Example 242, (R)-7-(2-(4-(2-(4-(2,5-dimethylthiazole-4-carbonyl)-1-oxa-4,9-diazaspiro[5.5]undecan-9-yl)ethoxy)benzylamino)-1-hydroxyethyl)-4-hydroxy-benzo[d]thiazol-2(3H)-one] | 83 | 43 | – | – | –
15 | Cc1ccsc1C(=O)N1CCOC2(CCN(CCCCCCCCCNC[C@H](O)c3ccc(O)c4[nH]c(=O)sc34)CC2)C1 [Example 191, (R)-4-hydroxy-7-(1-hydroxy-2-(9-(4-(3-methylthiophene-2-carbonyl)-1-oxa-4,9-diazaspiro[5.5]undecan-9-yl)nonylamino)ethyl)benzo[d]thiazol-2(3H)-one] | 94 | 82 | – | – | –
16 | O=C(Cc1ccsc1)N1CCOC2(CCN(Cc3cc(F)cc(CCNC[C@H](O)c4ccc(O)c5[nH]c(=O)sc45)c3)CC2)C1 [Example 126, (R)-7-(2-(3-fluoro-5-((4-(2-(thiophen-3-yl)acetyl)-1-oxa-4,9-diazaspiro[5.5]undecan-9-yl)methyl)phenethylamino)-1-hydroxyethyl)-4-hydroxybenzo[d]thiazol-2(3H)-one] | 50 | 98 | – | – | –
17 | Cc1cc(C(=O)N2CCOC3(CCN(Cc4cc(F)cc(CCNC[C@H](O)c5ccc(O)c6[nH]c(=O)sc56)c4)CC3)C2)c(C)s1 [Example 150, (R)-7-(2-(3-((4-(2,5-dimethylthiophene-3-carbonyl)-1-oxa-4,9-diazaspiro[5.5]undecan-9-yl)methyl)-5-fluorophenethylamino)-1-hydroxyethyl)-4-hydroxybenzo[d]thiazol-2(3H)-one] | 91 | 100 | – | – | –
18 | Cc1sccc1C(=O)N1CCOC2(CCN(CCCCCCCCCNC[C@H](O)c3ccc(O)c4[nH]c(=O)sc34)CC2)C1 [Example 205, (R)-4-hydroxy-7-(1-hydroxy-2-(9-(4-(2-methylthiophene-3-carbonyl)-1-oxa-4,9-diazaspiro[5.5]undecan-9-yl)nonylamino)ethyl)benzo[d]thiazol-2(3H)-one] | 91 | 85 | – | – | –
19 | O=C(c1ccc(-c2ccccc2)cc1)N1CCOC2(CCN(Cc3cc(F)cc(CCNC[C@H](O)c4ccc(O)c5[nH]c(=O)sc45)c3)CC2)C1 [Example 169, (R)-7-(2-(3-((4-(biphenylcarbonyl)-1-oxa-4,9-diazaspiro[5.5]undecan-9-yl)methyl)-5-fluorophenethylamino)-1-hydroxyethyl)-4-hydroxybenzo[d]thiazol-2(3H)-one] | – | – | – | −2 | 92
20 | Cc1cc(C(=O)N2CCOC3(CCN(CCOc4ccc(CNC[C@H](O)c5ccc(O)c6[nH]c(=O)sc56)cc4)CC3)C2)sc1C [Example 263] | – | – | 37 | – | 74
21 | O=C(CCOc1ccccc1)N1CCOC2(CCN(CCCCCCCCCNC[C@H](O)c3ccc(O)c4[nH]c(=O)sc34)CC2)C1 [Example 206, (R)-4-hydroxy-7-(1-hydroxy-2-(9-(4-(3-phenoxypropanoyl)-1-oxa-4,9-diazaspiro[5.5]undecan-9-yl)nonylamino)ethyl)benzo[d]thiazol-2(3H)-one] | 95 | 95 | – | – | –
